Reference: ChEMBL document CHEMBL1201862, “PubChem BioAssay data set” (2004)
pIC50: −log10 of the molar value. Calls of active or inactive are those of the source.

Columns and labels:
[1] = target: Dual specificity tyrosine-phosphorylation-regulated kinase 1A (Rattus norvegicus, UniProt Q63470); format: biochemical, Homo sapiens
INS1 = assay: beta cell apoptosis inhibitors, cytokine rescue, dose response, luminescence, retest (AID 449756); format: functional, cell-based; settings: Rattus norvegicus;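 further: cell death triggered by IL-1 beta plus TNF-alpha plus IFN-gamma mixture; protective hits raise ATP signal compared with cytokine alone wells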
Beta-galactosidase = Beta-galactosidase (Escherichia coli, UniProt Q8VNN2); format: functional
Beta Lactamase = Beta Lactamase (Pseudomonas aeruginosa, UniProt Q932Y6); assay: beta-lactamase reporter inhibitor potency, dose response, artefact control for TLR9-MyD88 binding inhibitor project, BLA reporter cells, FRET fluorescence (AID 588341); format: cell-based;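 further: cell based assay in CHO-K1 cells stably expressing beta-lactamase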
[2] = target: T1, Kappa-type opioid receptor (Homo sapiens, UniProt P41145); format: functional
Aminopeptidase N = target: T2, Aminopeptidase N (Plasmodium falciparum FcB1/Columbia, UniProt O96935); assay: P. falciparum M1AAP inhibitors, biochemical, fluorogenic H-Leu-NHMec substrate, 1536-well (AID 1445); set-up: species or system Plasmodium falciparum 3D7, 3D7
T2 sequence (O96935 whole entry): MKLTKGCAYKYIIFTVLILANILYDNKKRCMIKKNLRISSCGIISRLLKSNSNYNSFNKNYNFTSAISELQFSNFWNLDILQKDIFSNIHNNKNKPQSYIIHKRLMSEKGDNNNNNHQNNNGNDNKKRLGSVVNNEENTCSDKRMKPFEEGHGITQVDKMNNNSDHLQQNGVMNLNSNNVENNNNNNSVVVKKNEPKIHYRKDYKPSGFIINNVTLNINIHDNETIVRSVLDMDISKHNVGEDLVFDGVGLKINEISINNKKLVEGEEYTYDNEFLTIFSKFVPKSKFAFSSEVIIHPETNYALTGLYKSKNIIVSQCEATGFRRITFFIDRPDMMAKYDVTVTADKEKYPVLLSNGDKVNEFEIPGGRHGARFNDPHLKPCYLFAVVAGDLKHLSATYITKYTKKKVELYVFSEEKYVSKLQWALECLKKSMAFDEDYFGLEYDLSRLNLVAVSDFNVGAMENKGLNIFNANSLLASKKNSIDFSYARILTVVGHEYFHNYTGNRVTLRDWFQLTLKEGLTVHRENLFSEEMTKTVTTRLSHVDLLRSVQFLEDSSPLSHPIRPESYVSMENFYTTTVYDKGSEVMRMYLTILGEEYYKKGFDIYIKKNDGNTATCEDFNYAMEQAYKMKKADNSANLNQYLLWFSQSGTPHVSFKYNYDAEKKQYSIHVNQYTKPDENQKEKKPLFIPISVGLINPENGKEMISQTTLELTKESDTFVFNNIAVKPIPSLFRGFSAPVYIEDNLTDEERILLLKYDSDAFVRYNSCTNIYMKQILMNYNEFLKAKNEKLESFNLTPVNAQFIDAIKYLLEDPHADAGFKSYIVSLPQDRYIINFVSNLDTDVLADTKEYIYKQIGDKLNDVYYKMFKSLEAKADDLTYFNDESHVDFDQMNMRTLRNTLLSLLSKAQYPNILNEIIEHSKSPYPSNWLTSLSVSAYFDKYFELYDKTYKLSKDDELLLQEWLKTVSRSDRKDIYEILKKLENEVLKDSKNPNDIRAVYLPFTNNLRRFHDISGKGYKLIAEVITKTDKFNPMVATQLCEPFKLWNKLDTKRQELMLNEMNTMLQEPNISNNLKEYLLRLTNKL

[3] = Fluorescence-based cell-based high throughput dose response assay for inhibitors of the interaction of nucleotide-binding oligomerization domain containing 2 (NOD2) and the receptor-interacting serine-threonine kinase 2 (RIPK2).; format: functional; settings: Homo sapiens
CHO = assay: cytotoxicity in TLR9-MyD88 CHO cells, dose response, cytotoxicity control for TLR9-MyD88 binding inhibitor project, cell-based, luminescence (AID 588339); format: functional, hamster; settings: Cricetulus griseus;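 further: CHO cells stably coexpressing TLR9 and MyD88 fusions from primary screen; compound exposure lasted 48 hours before viability readout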
[4] = target: T1, Kappa-type opioid receptor; format: functional; remark: listed apart in the source
[5] = target: T3, Tyrosine-protein phosphatase non-receptor type 22 (Homo sapiens, UniProt Q9Y2R2); format: functional
T3 sequence (Q9Y2R2 whole entry): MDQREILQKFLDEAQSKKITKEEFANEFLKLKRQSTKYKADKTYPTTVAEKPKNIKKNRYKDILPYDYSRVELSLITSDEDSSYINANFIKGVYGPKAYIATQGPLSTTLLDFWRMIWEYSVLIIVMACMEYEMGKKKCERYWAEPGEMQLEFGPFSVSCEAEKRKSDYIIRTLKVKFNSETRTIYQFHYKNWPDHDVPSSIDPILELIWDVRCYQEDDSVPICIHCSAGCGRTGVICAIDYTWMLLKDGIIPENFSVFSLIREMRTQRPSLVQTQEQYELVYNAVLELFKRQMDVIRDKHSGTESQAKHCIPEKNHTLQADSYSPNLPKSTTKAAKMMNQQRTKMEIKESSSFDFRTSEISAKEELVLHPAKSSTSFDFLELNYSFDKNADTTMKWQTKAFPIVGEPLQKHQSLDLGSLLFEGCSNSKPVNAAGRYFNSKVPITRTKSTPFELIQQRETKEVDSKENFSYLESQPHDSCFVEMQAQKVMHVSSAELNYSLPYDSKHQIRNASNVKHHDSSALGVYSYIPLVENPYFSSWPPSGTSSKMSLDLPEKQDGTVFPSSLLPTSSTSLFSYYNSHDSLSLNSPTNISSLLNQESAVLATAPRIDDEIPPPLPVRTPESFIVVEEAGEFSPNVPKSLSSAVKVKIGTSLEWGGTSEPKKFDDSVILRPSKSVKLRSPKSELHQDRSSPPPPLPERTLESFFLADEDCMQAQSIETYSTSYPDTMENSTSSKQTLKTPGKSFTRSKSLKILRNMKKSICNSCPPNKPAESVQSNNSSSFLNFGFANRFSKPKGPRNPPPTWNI

[6] = target: T3, Tyrosine-protein phosphatase non-receptor type 22; format: functional; remark: listed apart in the source
[7] = target: T4, Tyrosine-protein phosphatase non-receptor type 7 (Homo sapiens, UniProt P35236); format: functional
T4 sequence (P35236 whole entry): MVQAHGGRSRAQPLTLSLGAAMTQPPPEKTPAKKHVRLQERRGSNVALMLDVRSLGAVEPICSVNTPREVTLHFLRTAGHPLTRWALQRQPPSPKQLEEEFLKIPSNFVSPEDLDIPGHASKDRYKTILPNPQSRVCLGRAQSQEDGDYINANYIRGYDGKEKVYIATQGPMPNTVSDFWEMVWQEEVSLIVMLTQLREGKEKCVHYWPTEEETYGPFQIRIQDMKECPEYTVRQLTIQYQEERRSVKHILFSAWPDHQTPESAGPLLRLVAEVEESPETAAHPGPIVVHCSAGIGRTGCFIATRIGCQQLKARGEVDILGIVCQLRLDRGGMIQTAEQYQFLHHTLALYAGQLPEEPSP

[8] = target: T5, Carboxy-terminal domain RNA polymerase II polypeptide A small phosphatase 1 (Homo sapiens, UniProt Q9GZU7); assay: inhibitors of CTDSP1, concentration-response testing, biochemical assay, absorbance-based, actives from ultra-high-throughput screening (AID 540297); format: functional
T5 sequence (Q9GZU7 whole entry): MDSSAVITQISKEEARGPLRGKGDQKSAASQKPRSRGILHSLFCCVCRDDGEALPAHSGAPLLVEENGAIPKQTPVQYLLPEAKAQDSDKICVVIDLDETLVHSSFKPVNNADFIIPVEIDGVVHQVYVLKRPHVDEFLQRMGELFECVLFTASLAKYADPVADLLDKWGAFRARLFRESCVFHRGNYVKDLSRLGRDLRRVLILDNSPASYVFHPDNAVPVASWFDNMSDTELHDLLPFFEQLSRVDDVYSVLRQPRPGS

[9] = target: T3, Tyrosine-protein phosphatase non-receptor type 22; assay: inhibitors of LYP phosphatase, biochemical, fluorescence intensity, uHTS (AID 1779)
[10] = target: Envelope glycoprotein gp160 (Human immunodeficiency virus 1, UniProt Q6QLK5); assay: inhibitors of HIV fusion peptide binding, primary screen, biochemical, uHTS, fluorescence dequenching (AID 1986)
[11] = target: T6, Long-chain-fatty-acid--AMP ligase FadD28 (Mycobacterium tuberculosis, UniProt P9WQ59); assay: Fluorescence polarization aasay to screen for inhibitors that compete for the binding of FadD28 to a bisubstrate Measured in Biochemical System Using Plate Reader - 2147-01_Inhibitor_Dose_CherryPick_Activity.; format: functional, Mycobacterium tuberculosis H37Rv
T6 sequence (P9WQ59 whole entry): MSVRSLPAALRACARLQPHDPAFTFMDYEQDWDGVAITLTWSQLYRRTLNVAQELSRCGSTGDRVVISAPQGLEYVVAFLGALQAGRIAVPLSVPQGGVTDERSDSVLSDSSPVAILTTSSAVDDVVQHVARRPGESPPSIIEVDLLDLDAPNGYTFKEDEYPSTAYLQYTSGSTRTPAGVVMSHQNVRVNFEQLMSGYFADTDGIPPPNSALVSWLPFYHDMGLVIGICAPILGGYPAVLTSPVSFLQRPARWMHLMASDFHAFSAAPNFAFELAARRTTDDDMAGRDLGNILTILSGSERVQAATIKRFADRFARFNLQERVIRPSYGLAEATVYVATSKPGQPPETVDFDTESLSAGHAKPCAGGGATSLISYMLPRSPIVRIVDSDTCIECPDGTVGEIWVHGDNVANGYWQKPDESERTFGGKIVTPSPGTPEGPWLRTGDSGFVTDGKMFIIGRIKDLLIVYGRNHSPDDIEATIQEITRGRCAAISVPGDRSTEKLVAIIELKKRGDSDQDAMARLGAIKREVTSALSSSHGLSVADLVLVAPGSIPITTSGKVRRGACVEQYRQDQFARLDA

Streptococcus = assay: Group A Streptococcus viability loss, dose response, counter-screen for streptokinase expression inhibitor project, luminescence, BacTiterGlo (AID 1915); format: functional, organism-based;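 further: potency for reduction of bacterial viability or growth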
[12] = HIV-1 Env-mediated cell fusion inhibitors, dose response, CCR5-tropic Env (AID 2279); format: functional
[13] = tested on: Streptococcus sp. 'group A'; assay: growth inhibition of control SK(-) GAS strain, dose response, counter-screen for streptokinase expression inhibitor project, luminescence, kanamycin, BacTiterGlo, confirmation (AID 1900); format: functional, organism-based

T1 sequence (P41145 whole entry): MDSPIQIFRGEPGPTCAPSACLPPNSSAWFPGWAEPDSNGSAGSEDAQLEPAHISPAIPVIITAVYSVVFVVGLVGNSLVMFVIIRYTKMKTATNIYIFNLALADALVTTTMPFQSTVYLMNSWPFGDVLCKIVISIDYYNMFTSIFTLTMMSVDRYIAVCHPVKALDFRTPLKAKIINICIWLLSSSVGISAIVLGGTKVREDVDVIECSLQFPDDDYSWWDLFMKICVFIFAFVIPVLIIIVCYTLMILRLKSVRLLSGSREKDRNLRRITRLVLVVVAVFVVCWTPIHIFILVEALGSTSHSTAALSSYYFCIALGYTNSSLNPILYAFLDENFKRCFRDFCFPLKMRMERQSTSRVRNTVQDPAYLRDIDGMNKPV
Sequence of Envelope glycoprotein gp160 (Q6QLK5 whole entry, the tested form may be a part): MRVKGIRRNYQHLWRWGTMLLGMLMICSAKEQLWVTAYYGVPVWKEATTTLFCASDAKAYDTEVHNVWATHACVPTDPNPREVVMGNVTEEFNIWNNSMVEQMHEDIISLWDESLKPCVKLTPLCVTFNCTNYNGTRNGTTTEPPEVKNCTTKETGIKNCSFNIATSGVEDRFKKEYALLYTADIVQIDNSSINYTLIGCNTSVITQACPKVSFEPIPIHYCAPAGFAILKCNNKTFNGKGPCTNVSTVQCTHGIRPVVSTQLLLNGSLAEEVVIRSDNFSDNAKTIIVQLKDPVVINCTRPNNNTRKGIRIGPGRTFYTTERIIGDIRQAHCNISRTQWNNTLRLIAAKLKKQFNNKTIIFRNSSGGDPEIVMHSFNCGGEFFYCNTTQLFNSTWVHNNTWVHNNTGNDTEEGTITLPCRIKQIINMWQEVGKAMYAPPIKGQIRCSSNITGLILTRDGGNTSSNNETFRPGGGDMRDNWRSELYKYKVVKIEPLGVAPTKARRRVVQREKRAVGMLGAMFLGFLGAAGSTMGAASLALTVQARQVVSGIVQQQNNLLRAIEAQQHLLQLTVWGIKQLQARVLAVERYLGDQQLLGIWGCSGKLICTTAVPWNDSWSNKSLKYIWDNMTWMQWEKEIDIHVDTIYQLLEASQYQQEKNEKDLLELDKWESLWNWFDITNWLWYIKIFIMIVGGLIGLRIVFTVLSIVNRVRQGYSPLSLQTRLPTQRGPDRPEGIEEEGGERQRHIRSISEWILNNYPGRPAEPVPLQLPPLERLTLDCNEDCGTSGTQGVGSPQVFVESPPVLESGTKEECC
Sequence of Beta-galactosidase (Q8VNN2 whole entry): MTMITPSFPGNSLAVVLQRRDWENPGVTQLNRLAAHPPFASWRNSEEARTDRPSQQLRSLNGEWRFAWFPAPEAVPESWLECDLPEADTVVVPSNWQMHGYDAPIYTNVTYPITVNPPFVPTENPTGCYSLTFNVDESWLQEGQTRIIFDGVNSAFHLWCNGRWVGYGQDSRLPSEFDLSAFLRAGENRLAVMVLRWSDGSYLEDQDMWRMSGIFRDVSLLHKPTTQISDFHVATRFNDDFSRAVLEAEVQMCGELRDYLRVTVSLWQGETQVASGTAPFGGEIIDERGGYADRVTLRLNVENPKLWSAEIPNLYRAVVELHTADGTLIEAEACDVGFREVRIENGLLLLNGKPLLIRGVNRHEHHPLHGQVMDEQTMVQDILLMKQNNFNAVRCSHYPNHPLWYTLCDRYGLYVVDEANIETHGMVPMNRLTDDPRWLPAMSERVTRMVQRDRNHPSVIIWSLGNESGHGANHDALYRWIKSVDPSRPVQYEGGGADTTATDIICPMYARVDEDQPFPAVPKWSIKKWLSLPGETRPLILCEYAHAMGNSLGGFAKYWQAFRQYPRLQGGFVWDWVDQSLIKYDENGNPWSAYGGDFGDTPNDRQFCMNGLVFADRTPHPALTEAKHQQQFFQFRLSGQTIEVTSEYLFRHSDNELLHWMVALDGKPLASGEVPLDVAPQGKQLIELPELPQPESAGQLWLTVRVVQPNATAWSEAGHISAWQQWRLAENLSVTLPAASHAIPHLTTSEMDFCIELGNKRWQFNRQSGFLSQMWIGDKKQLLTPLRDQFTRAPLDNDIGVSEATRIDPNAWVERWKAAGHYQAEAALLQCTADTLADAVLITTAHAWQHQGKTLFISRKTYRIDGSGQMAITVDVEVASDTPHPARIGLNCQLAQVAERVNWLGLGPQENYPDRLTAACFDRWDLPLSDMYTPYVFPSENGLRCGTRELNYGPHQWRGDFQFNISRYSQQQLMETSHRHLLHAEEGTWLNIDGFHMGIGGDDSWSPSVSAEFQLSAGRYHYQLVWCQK
Sequence of Beta Lactamase (Q932Y6 whole entry): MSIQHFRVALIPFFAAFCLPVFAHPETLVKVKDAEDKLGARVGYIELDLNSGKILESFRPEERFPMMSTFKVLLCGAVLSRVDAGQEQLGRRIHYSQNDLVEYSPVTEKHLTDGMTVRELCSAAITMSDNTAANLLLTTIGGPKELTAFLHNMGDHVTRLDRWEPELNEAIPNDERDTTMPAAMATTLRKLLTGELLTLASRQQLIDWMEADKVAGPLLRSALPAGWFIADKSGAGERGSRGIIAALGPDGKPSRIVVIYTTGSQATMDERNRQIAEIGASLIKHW

## N#CC(C#N)=C1C=CC=CN1/C(=C\c1ccco1)C(=O)c1ccccc1
[1]
  AC50: 5.46 µM (active)
INS1
  AC50: 7.4 µM (active)
Beta-galactosidase
  EC50: > 31.5 µM (inactive)
Beta Lactamase
  IC50: 15.9 µM (inactive)
[2]
  pIC50: 4.72
Aminopeptidase N
  IC50: 65.2 µM (active)
[3]
  IC50: 1.02 µM (active)
CHO
  IC50: 1.64 µM (active)
[4]
  IC50: 4.86 µM (active)

## CCOc1cc(/C=C2/NC(=O)NC2=O)cc(Br)c1OCc1ccc(C(=O)O)cc1
[5]
  IC50: 2.39 µM (active)
[6]
  IC50: 5.76 µM (active)
[7]
  IC50: 4.2 µM (active)
[8]
  IC50: 5.9 µM (active)
[9]
  IC50: 8.82 µM (active)

## Oc1cc(-c2ccccc2)nc2c(-c3ccccc3)c(C(F)(F)F)nn12
[10]
  IC50: 17.5 µM (active)
[11]
  AC50: 54.1 µM (active)
Streptococcus
  EC50: 4.84 µM (active)
[12]
  IC50: > 50 µM (active)
[13]
  EC50: 3.47 µM (active)
